# Data published in patent publication US10259810B2, “N-sulfonylated pyrazolo[3,4-b]pyridin-6-carboxamides and method of use” (AbbVie S.à.r.l., priority 2015, dated 2019).
# Assays:
# ΔF508-CFTR [1] = target: T1, ΔF508-CFTR (Homo sapiens, UniProt P13569, DEL508-508); experiment: CFTR cell surface levels using HRP-tagged ΔF508-CFTR expressing CFBE cells, intrinsic corrector capacity; assay type: cell-based; design: % Activation: concentration or dose not given beside the values; details: HRP-tagged ΔF508-CFTR expressing CFBE41o- cells, compound alone (intrinsic corrector capacity), 20 hours at 33° C.; for EC50: read-out: EC50
# T1 construct: host or cells: CFBE41o-, doxycycline-inducible
# Source text: (§1) Measuring CFTR Cell Surface Levels Using HRP-Tagged ΔF508-CFTR Expressing CFBE Cells
# (§2) The HRP-tagged ΔF508-CFTR cell assay measures the expression of CFTR-ΔF508 at the plasma membrane. CFTR-ΔF508 has a folding defect leading to absence of protein at the plasma membrane. This assay is used to evaluate the capacity of compounds to increase the expression of CFTR-ΔF508 at the plasma membrane. The CFTR-ΔF508 is tagged with HRP (horse radish peroxidase enzyme) within the ECL4 (Extracellular loop 4) of CFTR (Phuan, P.-W. et al. Synergy-based small-molecule screen using a human lung epithelial cell line yields ΔF508-CFTR correctors that augment VX-809 maximal efficacy. Mol. Pharmacol. 86, 42-51 (2014)). When HRP-tagged ΔF508-CFTR is present at the plasma membrane, the HRP enzyme activity can be measured. The amount of CFTR-ΔF508 that can be rescued to the plasma membrane is correlated with the amount of functional enzyme that can be measured.
# (§3) There are several ways to measure the capacity of compounds to rescue CFTR-ΔF508 to the plasma membrane; either compounds are evaluated on their own and the impact on plasma membrane levels is measured or compounds are evaluated in combination with a co-corrector, i.e. a compound that rescues CFTR-ΔF508 to the plasma membrane but rescue can be enhanced by addition of compounds due to a complementary mode of action.
# Activity of Compounds for their Intrinsic Corrector Capacity:
# For this purpose doxycycline-inducible ΔF508-CFTR-HRP expressing CFBE4lo− cells (obtained from Gergely Lukacs, McGill University) were maintained in MEM (Gibco; 31095) supplemented with 10% fetal bovine serum (Hyclone; SV30160.03) under puromycin (3 μg/mL) and G418 selection (0.2 mg/mL). For compound testing, cells were seeded at 4000 cells/well in white 384-well plates (Greiner; 781080) in 50 μL medium containing 0.5 μg/mL doxycycline and incubated for 68 hours at 37° C., 5% CO2. On day four, […] compounds diluted in PBS were added to the plates at a final DMSO concentration of 0.1%. All compound plates contained negative controls (DMSO) and positive controls ([…] corrector, 3-[(2R,4R)-4-({[1-(2,2-difluoro-1,3-benzodioxol-5-yl)cyclopropyl]carbonyl}amino)-7-methoxy-3,4-dihydro-2H-chromen-2-yl]benzoic acid). Cell plates were incubated at 33° C., 5% CO2 for 20 hours. On day five, the cells were washed five times with phosphate-buffered saline, and HRP activity was assayed by the addition of 50 μL/well of HRP substrate (SuperSignal™ West Pico Chemiluminescent Substrate, Thermo Scientific; 34080). After incubation for 15 minutes in the dark, chemiluminescence was measured using a plate reader (EnVision®, Perkin Elmer). Raw data were normalized to percentage activity values using the equation: 100×(Sample−Negative control)/(Positive control−Negative Control).
# ΔF508-CFTR [2] = target: T1, ΔF508-CFTR; experiment: CFTR cell surface levels using HRP-tagged ΔF508-CFTR expressing CFBE cells, in the presence of a co-corrector; assay type: cell-based; details: HRP-tagged ΔF508-CFTR CFBE cells, in the presence of 3 μM co-corrector; for EC50: read-out: EC50
# Source text: as §1, §2, §3
# Activity of Compounds in Combination with Co-Corrector:
# For this purpose doxycycline-inducible ΔF508-CFTR-HRP expressing CFBE4lo− cells (obtained from Gergely Lukacs, McGill University) were maintained in MEM (Minimum Essential Medium, Gibco; 31095) supplemented with 10% fetal bovine serum (Hyclone; SV30160.03) under puromycin (3 μg/mL) and G418 selection (0.2 mg/mL). For compound testing, cells were seeded at 4000 cells/well in white 384-well plates (Greiner; 781080) in 50 μL of medium containing 0.5 μg/mL doxycycline and incubated for 68 hours at 37° C., 5% CO2. On day four, 10 μL of test compounds diluted in PBS (phosphate buffered saline) were added to the plates at a final DMSO concentration of 0.1%. In order to measure compound synergy with a co-corrector, 3 μM co-corrector (3-[(2R,4R)-4-({[1-(2,2-difluoro-1,3-benzodioxol-5-yl)cyclopropyl]carbonyl}amino)-7-methoxy-3,4-dihydro-2H-chromen-2-yl]benzoic acid) was added along with test compounds. All compound plates contained negative controls (DMSO) and positive controls (3 μM co-corrector). Cell plates were incubated at 33° C., 5% CO2 for 20 hours. On day five, the cells were washed five times with phosphate-buffered saline, and HRP activity was assayed by the addition of 50 μL/well of HRP substrate (SuperSignal™ West Pico Chemiluminescent Substrate, Thermo Scientific; 34080). After incubation for 15 minutes in the dark, the chemiluminescence was measured using a plate reader (EnVision®, Perkin Elmer). Raw data were normalized to percentage activity values using the equation: 100×(Sample−Negative control)/(Positive control−Negative Control).
# T1 sequence (P13569 with tags, fused parts or gaps DEL508-508): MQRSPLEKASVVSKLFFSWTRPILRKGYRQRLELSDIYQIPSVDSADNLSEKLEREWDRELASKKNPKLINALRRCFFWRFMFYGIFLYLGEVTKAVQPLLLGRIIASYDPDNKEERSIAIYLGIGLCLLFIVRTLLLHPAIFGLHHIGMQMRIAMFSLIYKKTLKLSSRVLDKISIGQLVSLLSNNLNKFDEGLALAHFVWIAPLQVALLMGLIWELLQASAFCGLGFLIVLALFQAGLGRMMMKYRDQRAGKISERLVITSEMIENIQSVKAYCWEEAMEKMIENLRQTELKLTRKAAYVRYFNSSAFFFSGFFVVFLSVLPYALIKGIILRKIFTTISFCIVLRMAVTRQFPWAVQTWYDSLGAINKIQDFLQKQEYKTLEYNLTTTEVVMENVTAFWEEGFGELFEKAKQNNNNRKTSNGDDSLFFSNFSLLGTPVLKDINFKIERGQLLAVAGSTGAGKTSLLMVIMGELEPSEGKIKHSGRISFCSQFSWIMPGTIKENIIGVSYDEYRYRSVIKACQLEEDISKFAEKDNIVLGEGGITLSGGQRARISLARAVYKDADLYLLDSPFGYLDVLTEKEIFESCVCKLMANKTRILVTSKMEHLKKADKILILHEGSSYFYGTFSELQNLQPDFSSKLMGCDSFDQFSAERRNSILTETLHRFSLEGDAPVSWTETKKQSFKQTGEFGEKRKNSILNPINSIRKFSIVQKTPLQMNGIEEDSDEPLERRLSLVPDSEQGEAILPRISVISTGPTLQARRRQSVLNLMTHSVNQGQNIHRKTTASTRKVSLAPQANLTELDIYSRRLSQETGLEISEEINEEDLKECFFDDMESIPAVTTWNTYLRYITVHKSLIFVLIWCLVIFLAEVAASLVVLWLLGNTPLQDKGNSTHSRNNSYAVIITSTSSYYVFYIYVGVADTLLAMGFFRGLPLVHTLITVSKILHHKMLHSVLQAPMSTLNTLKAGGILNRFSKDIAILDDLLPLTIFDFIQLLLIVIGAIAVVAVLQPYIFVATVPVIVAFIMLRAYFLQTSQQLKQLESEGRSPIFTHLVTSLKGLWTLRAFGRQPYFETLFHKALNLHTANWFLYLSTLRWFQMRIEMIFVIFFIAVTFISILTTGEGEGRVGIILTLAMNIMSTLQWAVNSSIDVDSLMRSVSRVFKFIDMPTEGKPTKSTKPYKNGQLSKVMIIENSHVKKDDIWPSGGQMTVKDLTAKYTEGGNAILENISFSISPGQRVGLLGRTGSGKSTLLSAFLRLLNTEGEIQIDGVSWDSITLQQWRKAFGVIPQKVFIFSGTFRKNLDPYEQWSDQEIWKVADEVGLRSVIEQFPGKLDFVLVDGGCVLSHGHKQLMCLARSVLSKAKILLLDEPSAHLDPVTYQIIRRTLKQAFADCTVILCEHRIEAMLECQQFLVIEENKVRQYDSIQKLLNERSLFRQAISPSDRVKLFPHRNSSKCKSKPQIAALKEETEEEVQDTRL
smiles,measurement,setting,value
"Cc1nn(-c2ccccc2)c2nc(C(=O)NS(=O)(=O)C(F)(F)F)cc(-c3ccc(N4CCOCC4)cc3)c12 [Compound 3, 3-methyl-4-[4-(morpholin-4-yl)phenyl]-1-phenyl-N-(trifluoromethanesulfonyl)-1H-pyrazolo[3,4-b]pyridine-6-carboxamide]",% Activation,ΔF508-CFTR [1],53.08%
same,EC50,ΔF508-CFTR [1],3340 nM
"O=C(NS(=O)(=O)C1CC1)c1cc(OCC2CCOCC2)c2c(C3CCC3)nn(-c3ccccc3)c2n1 [Compound 333, 3-cyclobutyl-N-(cyclopropanesulfonyl)-4-[(oxan-4-yl)methoxy]-1-phenyl-1H-pyrazolo[3,4-b]pyridine-6-carboxamide]",% Activation,ΔF508-CFTR [1],180%
same,EC50,ΔF508-CFTR [1],82.8 nM
"CCS(=O)(=O)NC(=O)c1cc(OCC2CCOCC2)c2c(C3CCC3)nn(-c3ccccc3)c2n1 [Compound 335, 3-cyclobutyl-N-(ethanesulfonyl)-4-[(oxan-4-yl)methoxy]-1-phenyl-1H-pyrazolo[3,4-b]pyridine-6-carboxamide]",% Activation,ΔF508-CFTR [1],171.65%
same,EC50,ΔF508-CFTR [1],150 nM
"O=C(NS(=O)(=O)C1CCOC1)c1cc(N2CCN(c3ccncc3)CC2)c2c(C3CCC3)nn(C3CCCCC3)c2n1 (stereo not shown) [Compound 468, 3-cyclobutyl-1-cyclohexyl-N-(oxolane-3-sulfonyl)-4-[4-(pyridin-4-yl)piperazin-1-yl]-1H-pyrazolo[3,4-b]pyridine-6-carboxamide]",% Activation,ΔF508-CFTR [2],443.05%
same,EC50,ΔF508-CFTR [2],524 nM
"CC(C)N1CCN(c2ccc(-c3cc(C(=O)NS(=O)(=O)N(C)C)nc4c3c(C3CCC3)nn4C3CCCCC3)cc2)CC1 [Compound 547, 3-cyclobutyl-1-cyclohexyl-N-(dimethylsulfamoyl)-4-{4-[4-(propan-2-yl)piperazin-1-yl]phenyl}-1H-pyrazolo[3,4-b]pyridine-6-carboxamide]",% Activation,ΔF508-CFTR [2],372.95%
same,EC50,ΔF508-CFTR [2],349 nM
"CCOC(=O)N1CCC(NS(=O)(=O)NC(=O)c2cc(N3CCC(COC)CC3)c3c(C4CCC4)nn(-c4ccc(F)cc4)c3n2)CC1 [Compound 673, ethyl 4-[({3-cyclobutyl-1-(4-fluorophenyl)-4-[4-(methoxymethyl)piperidin-1-yl]-1H-pyrazolo[3,4-b]pyridine-6-carbonyl}sulfamoyl)amino]piperidine-1-carboxylate]",% Activation,ΔF508-CFTR [1],423.5%
same,EC50,ΔF508-CFTR [1],288 nM
"COCC1CCN(c2cc(C(=O)NS(=O)(=O)NC3COC3)nc3c2c(C2CCC2)nn3-c2ccc(F)cc2)CC1 [Compound 674, 3-cyclobutyl-1-(4-fluorophenyl)-4-[4-(methoxymethyl)piperidin-1-yl]-N-[(oxetan-3-yl)sulfamoyl]-1H-pyrazolo[3,4-b]pyridine-6-carboxamide]",% Activation,ΔF508-CFTR [1],389.5%
same,EC50,ΔF508-CFTR [1],156 nM
"COCC1CCN(c2cc(C(=O)NS(=O)(=O)NC3CCOCC3)nc3c2c(C2CCC2)nn3-c2ccc(F)cc2)CC1 [Compound 675, 3-cyclobutyl-1-(4-fluorophenyl)-4-[4-(methoxymethyl)piperidin-1-yl]-N-[(oxan-4-yl)sulfamoyl]-1H-pyrazolo[3,4-b]pyridine-6-carboxamide]",% Activation,ΔF508-CFTR [1],398.1%
same,EC50,ΔF508-CFTR [1],316 nM
"COCC1CCN(c2cc(C(=O)NS(=O)(=O)N3CCC(N4CCOCC4)CC3)nc3c2c(C2CCC2)nn3-c2ccc(F)cc2)CC1 [Compound 676, 3-cyclobutyl-1-(4-fluorophenyl)-4-[4-(methoxymethyl)piperidin-1-yl]-N-[4-(morpholin-4-yl)piperidine-1-sulfonyl]-1H-pyrazolo[3,4-b]pyridine-6-carboxamide]",% Activation,ΔF508-CFTR [1],251.1%
same,EC50,ΔF508-CFTR [1],251 nM
"CCOC(=O)N1CCN(c2cc(C(=O)NS(=O)(=O)CCOC)nc3c2c(C2CCC2)nn3-c2ccc(F)cc2)CC1 [Compound 677, ethyl 4-{3-cyclobutyl-1-(4-fluorophenyl)-6-[(2-methoxyethanesulfonyl)carbamoyl]-1H-pyrazolo[3,4-b]pyridin-4-yl}piperazine-1-carboxylate]",% Activation,ΔF508-CFTR [1],458.5%
same,EC50,ΔF508-CFTR [1],171 nM
"CCOC(=O)N1CCN(c2cc(C(=O)NS(=O)(=O)N3CCOCC3)nc3c2c(C2CCC2)nn3-c2ccc(F)cc2)CC1 [Compound 678, ethyl 4-{3-cyclobutyl-1-(4-fluorophenyl)-6-[(morpholine-4-sulfonyl)carbamoyl]-1H-pyrazolo[3,4-b]pyridin-4-yl}piperazine-1-carboxylate]",% Activation,ΔF508-CFTR [1],345.1%
same,EC50,ΔF508-CFTR [1],221 nM
"CCOC(=O)N1CCN(c2cc(C(=O)NS(C)(=O)=O)nc3c2c(C2CCC2)nn3-c2ccc(F)cc2)CC1 [Compound 679, ethyl 4-{3-cyclobutyl-1-(4-fluorophenyl)-6-[(methanesulfonyl)carbamoyl]-1H-pyrazolo[3,4-b]pyridin-4-yl}piperazine-1-carboxylate]",% Activation,ΔF508-CFTR [1],476.9%
same,EC50,ΔF508-CFTR [1],132 nM
"CCOC(=O)N1CCN(c2cc(C(=O)NS(=O)(=O)NC)nc3c2c(C2CCC2)nn3-c2ccc(F)cc2)CC1 [Compound 680, ethyl 4-{3-cyclobutyl-1-(4-fluorophenyl)-6-[(methylsulfamoyl)carbamoyl]-1H-pyrazolo[3,4-b]pyridin-4-yl}piperazine-1-carboxylate]",% Activation,ΔF508-CFTR [1],351.2%
same,EC50,ΔF508-CFTR [1],339 nM
"CC(C)COC(=O)N1CCN(c2cc(C(=O)NS(C)(=O)=O)nc3c2c(C2CCC2)nn3-c2ccc(F)cc2)CC1 [Compound 681, 2-methylpropyl 4-{3-cyclobutyl-1-(4-fluorophenyl)-6-[(methanesulfonyl)carbamoyl]-1H-pyrazolo[3,4-b]pyridin-4-yl}piperazine-1-carboxylate]",% Activation,ΔF508-CFTR [1],366.2%
same,EC50,ΔF508-CFTR [1],172 nM
"CC(C)COC(=O)N1CCN(c2cc(C(=O)NS(=O)(=O)N3CCOCC3)nc3c2c(C2CCC2)nn3-c2ccc(F)cc2)CC1 [Compound 682, 2-methylpropyl 4-{3-cyclobutyl-1-(4-fluorophenyl)-6-[(morpholine-4-sulfonyl)carbamoyl]-1H-pyrazolo[3,4-b]pyridin-4-yl}piperazine-1-carboxylate]",% Activation,ΔF508-CFTR [1],260.8%
same,EC50,ΔF508-CFTR [1],297 nM
"COCCS(=O)(=O)NC(=O)c1cc(N2CCN(C(=O)OCC(C)C)CC2)c2c(C3CCC3)nn(-c3ccc(F)cc3)c2n1 [Compound 683, 2-methylpropyl 4-{3-cyclobutyl-1-(4-fluorophenyl)-6-[(2-methoxyethanesulfonyl)carbamoyl]-1H-pyrazolo[3,4-b]pyridin-4-yl}piperazine-1-carboxylate]",% Activation,ΔF508-CFTR [1],354.9%
same,EC50,ΔF508-CFTR [1],253 nM
"CNS(=O)(=O)NC(=O)c1cc(N2CCN(C(=O)OCC(C)C)CC2)c2c(C3CCC3)nn(-c3ccc(F)cc3)c2n1 [Compound 684, 2-methylpropyl 4-{3-cyclobutyl-1-(4-fluorophenyl)-6-[(methylsulfamoyl)carbamoyl]-1H-pyrazolo[3,4-b]pyridin-4-yl}piperazine-1-carboxylate]",% Activation,ΔF508-CFTR [1],356.9%
same,EC50,ΔF508-CFTR [1],115 nM
